Columns and labels:
[1] = humans, cited from earlier work
[2] = Aqueous solubility; assay type: physicochemical

Row | Structure (SMILES) | effect of food on absorption ([1]; administered with food) | aqueous solubility, descriptive term [2] | solubility ([2]; aqueous) [µg/mL] | half-life of tizoxanide in plasma ([1]; after oral nitazoxanide or nitazoxanide plus tizoxanide)
1 | CC(=O)Oc1ccccc1C(=O)Nc1ncc([N+](=O)[O-])s1 [nitazoxanide, 2-(acetolyloxy)-N-(5-nitro-2-thiazolyl)benzamide] | approximately doubled with food | practically insoluble | < 100 | 
2 | O=C(Nc1ncc([N+](=O)[O-])s1)c1ccccc1O [tizoxanide] |  |  |  | approximately 1.5 hours

From patent US10577337B2, “Compositions and methods of treatment with prodrugs of tizoxanide, an analogue or salt thereof” (Romark Laboratories, L.C., priority 2014, dated 2020)
